Measurements published in US11220527B2, “Peptides derived from the propeptide NTSR3 and their use in the treatment of depression” (CENTRE NATIONAL DE LA RECHERCHE SCIENTIFIQUE, priority 2016, dated 2022).
Where no end group is shown, it is not given here.

Assays:
TREK-1 channel = target: T1, TREK-1 channel (Homo sapiens, UniProt O95069); assay: Whole-cell patch clamp of TREK-1 channel activity in hTREK-1/HEK293 cells; format: cell-based; set-up: expressed in transfected cells; settings: dose-response measured at 0 mV, sigmoidal fit, FIG. 2; read-out: half-effect concentration (IC50) of TREK-1 channel activity inhibition
T1 sequence (O95069 1-426): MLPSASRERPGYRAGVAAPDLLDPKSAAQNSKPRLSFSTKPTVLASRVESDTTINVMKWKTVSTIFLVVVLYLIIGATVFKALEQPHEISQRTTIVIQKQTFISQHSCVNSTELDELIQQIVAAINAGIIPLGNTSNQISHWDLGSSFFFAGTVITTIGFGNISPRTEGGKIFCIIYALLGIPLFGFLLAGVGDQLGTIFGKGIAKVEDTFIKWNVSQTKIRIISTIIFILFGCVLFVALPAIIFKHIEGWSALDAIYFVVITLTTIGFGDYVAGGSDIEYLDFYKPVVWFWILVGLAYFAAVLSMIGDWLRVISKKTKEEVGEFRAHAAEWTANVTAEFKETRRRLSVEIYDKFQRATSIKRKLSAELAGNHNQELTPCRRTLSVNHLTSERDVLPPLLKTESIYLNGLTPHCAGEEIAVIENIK
Method: All experiments measuring the effect of spadin analogs and spadin were performed on ßTC3 or LNCaP or HEK293 cells stably transfected with the TREK-1 channel, hTREK-1/HEK293. The hTREK-1/HEK293 cell line was prepared in the laboratory. These cells also express a reporter gene: E-Green Fluorescent Protein (EGFP) enabling their visualization.
These cells were seeded at a density of 20,000 cells/dish of 35 mm diameter, 24 to 72 hours before being used.
The HEK293 cells were cultured in DMEM medium (Gibco)/10% fetal calf serum (FCS, ICN)/1% streptomycin+penicillin mixture (Gibco)/1% glutamax (Gibco)/0.5 mg/mL of G418 (Sigma) at 37° C. in the presence of 5% CO2.
The LNCaP cells were cultured in DMEM medium (Gibco)/10% fetal calf serum (FCS, ICN)/1% streptomycin+penicillin mixture (Gibco)/1% glutamax (Gibco)/at 37° C. in the presence of 5% CO2. […] From day 2 to day 4, the cells were measured by electrophysiological methods.
All measurements were made at room temperature, i.e. at 21-22° C. The hTREK-1/HEK293 cells were identified by the fluorescence emitted by EGFP after excitation at 480 nm. […]
The cell culture medium was replaced with a solution 150 mM NaCl, 5 mM KCl, 3 mM MgCl2, 1 mM CaCl2, 10 mM HEPES/NaOH pH 7.4 containing 10 mM tetraethylammonium chloride, 3 mM 4-aminopyridine. […] The resting potential of the membrane of the measured cell was set at −80 mV. […]

PSD-95 protein = assay: Synaptogenesis: PSD-95 expression in cortical neurons by Western blot; format: cell-based, mouse C57BI/6J; settings: 1 μM, 0-36 hours, normalized to ß-actin, FIG. 6
Method: Pregnant female C57BI/6J mice (20-25 g, Janvier Labs, St Berthevin, France) were anesthetized by inhalation of 2% isoflurane mixed with 30% oxygen and 70% nitrous oxide, and then sacrificed. The embryos (E14) were removed and the cerebral cortex was dissected in PBS containing 1% glucose. Neurons were prepared from cerebral cortex by mechanical dissociation, as described in Brewer and Torricelli, 2007 [26]. The dissociated neurons were distributed in poly-L-lysine treated plates and cultured for up to 10 days in neurobasal medium containing 2% B27 (Invitrogen, Fisher Scientific, Illkirch, France) and 50 μg/ml gentamycin (Sigma France), at 37° C. under 5% CO2. […]
Cortical neurons treated with peptides G/A-PE(22-28) and biotinylated G/A-PE(22-28) for different durations (0, 5, 8, 24 and 36 hours) were homogenized in Laemmli buffer and analyzed using 10% SDS-Page gels. […] The ß-actin contents were determined after extraction using a 1/5000 dilution of anti-β-actin antibodies (Santa Cruz mouse monoclonal antibody, dilution 1/5000). […] The proteins were detected with ECL Plus detection reagents (Amersham Biosciences) using the LAS-3000 imaging system (Fujifilm, Düsseldorf, Germany). The relative intensities of each labeled band were analyzed by densitometric scanning using ImageJ software (Wayne Rasband, National Institute of Health, Bethesda, Md., USA). […]

## AVSWGLR [G/A-PE(22-28), AVSWGLR]
TREK-1 channel
  IC50: 0.12 nM
PSD-95 protein
  PSD-95 synaptic protein expression (synaptogenesis): increased PSD-95 synaptic protein expression
